In publication PMC8766476, “Repurposing the Pathogen Box compounds for identification of potent anti-malarials against blood stages of Plasmodium falciparum with PfUCHL3 inhibitory activity” (Scientific Reports, 2022):
Like-named read-outs stand apart in the source and are kept apart here.

Target: T1, PfUCHL3 (Plasmodium falciparum, UniProt Q8IKM8)
T1 construct: gene UCHL3
Assay: fluorimetric Ub-AMC deubiquitinase assay with recombinant purified PfUCHL3, dose-response
Format: biochemical

T1 sequence (Q8IKM8 whole entry): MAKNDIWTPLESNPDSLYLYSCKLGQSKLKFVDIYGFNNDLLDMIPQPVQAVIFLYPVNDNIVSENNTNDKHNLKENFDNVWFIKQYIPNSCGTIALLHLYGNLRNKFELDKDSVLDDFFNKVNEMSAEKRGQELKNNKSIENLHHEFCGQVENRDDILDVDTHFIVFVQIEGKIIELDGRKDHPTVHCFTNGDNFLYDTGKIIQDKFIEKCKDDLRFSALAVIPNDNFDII

Structure (SMILES) | IC50 | IC50 (read-out: IC50)
CC1COC2(CCN(c3nc(=O)c4cc(C(F)(F)F)cc([N+](=O)[O-])c4s3)CC2)O1 (centres unmarked) [compound 1, MMV676603] | 25.1 ± 1.8 µM | –
Cc1cc2nc(NC(=O)C(C)(C)C)nc(Cl)c2n1Cc1ccc(Cl)cc1 [compound 2, MMV688704] | – | 87.1 ± 1.75 µM
